In one experiment the target is DNMT1 (Homo sapiens, UniProt P26358). As to the kind of experiment: DNMT1 biochemical activity, breaklight assay and/or SPA assay.
In experiment [1] the test system is erythroid progenitor cells (EPCs). Description: Fetal hemoglobin (HbF) ELISA in day 7 erythroid progenitor cells.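 Also: for fetal hemoglobin induction normalized to vehicle-treated cells.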 It counts as cell-based, human. The conditions noted are these: Homo sapiens, Erythroid progenitor cell, HbF ELISA, day 7 EPCs, 5 days; read-out: EPC ELISA (pEC50 category) (converted). An outline of the steps:
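CD34+-derived EPCs, 1,000 cells/well, rhEPO 3 U/mL; Compound A 22-pt series, […]; 5 d, 37° C, 5% CO2. Freeze-thaw lysis, anti-HbF capture + HRP anti-HbF, TMB, OD450. Normalized to DMSO wells.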

[2] abbreviates: binned activity in either the breaklight or the SPA assay.
The mark [3] stands for this setting: binned activity in either the breaklight or the SPA assay, read-out: DNMT1 BioChemical (pIC50 category) (converted).
Setting [4] is: breaklight assay and/or SPA assay, repeated experimental runs, read-out: average pIC50 against DNMT1 (converted).

Values joined by “and” are separate entries in the source; they are usually repeats but may differ in a detail not shown here. Equal entries are not always repeated. Structures can show the parent of a compound that is named as a salt. Where two headings read alike, the source gives them in different places.

DNMT1, sequence (P26358 whole entry, looked up): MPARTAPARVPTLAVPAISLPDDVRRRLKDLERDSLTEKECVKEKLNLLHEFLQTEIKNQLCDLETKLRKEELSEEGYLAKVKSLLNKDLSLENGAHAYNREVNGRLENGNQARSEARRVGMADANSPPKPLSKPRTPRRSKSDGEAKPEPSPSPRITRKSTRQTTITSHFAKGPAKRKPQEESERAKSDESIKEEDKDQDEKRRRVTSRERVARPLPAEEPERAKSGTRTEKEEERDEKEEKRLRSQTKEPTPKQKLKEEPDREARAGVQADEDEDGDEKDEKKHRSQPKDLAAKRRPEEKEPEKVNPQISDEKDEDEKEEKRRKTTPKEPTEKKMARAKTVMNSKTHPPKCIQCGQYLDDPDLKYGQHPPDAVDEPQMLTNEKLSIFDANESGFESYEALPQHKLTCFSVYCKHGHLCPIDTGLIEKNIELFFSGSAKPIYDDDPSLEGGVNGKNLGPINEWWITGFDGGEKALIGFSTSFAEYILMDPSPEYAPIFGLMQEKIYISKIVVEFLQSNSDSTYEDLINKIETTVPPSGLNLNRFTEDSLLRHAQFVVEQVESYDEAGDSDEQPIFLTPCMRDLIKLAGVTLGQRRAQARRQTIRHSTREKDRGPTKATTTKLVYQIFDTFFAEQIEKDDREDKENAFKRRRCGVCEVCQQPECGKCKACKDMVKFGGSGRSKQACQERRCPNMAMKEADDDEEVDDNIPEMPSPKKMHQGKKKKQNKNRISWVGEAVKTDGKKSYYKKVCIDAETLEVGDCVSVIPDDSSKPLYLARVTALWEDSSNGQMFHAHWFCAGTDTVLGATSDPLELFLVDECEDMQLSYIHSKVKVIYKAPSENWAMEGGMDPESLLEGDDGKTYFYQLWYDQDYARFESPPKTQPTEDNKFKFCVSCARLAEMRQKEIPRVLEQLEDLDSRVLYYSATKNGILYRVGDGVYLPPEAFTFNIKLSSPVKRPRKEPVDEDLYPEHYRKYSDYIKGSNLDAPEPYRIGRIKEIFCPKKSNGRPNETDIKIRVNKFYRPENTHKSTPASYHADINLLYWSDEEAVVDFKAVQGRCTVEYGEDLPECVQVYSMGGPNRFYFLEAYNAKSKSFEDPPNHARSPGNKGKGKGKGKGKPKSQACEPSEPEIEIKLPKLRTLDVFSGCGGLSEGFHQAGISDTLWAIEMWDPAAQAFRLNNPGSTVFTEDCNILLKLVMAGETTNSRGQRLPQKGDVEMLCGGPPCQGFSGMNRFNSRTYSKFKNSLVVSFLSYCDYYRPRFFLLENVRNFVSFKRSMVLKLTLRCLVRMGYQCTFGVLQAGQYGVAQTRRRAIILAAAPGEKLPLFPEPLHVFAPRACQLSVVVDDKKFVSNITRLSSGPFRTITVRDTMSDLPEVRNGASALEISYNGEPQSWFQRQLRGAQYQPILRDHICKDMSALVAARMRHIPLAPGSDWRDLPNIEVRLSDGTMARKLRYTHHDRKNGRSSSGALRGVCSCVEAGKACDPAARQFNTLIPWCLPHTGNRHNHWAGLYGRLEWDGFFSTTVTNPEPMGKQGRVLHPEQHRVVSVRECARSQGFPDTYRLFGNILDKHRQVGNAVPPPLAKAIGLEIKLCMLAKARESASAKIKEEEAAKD

For the molecule `CCc1c(C#N)c(SC(C(N)=O)c2ccccc2)nc(N2CCC[C@@H](CNC(=O)C(C)(C)N)C2)c1C#N` (stereo partly drawn) [Example 588, 2-amino-N-(((3S)-1-(6-((2-amino-2-oxo-1-phenylethyl)thio)-3,5-dicyano-4-ethylpyridin-2-yl)piperidin-3-yl)methyl)-2-methylpropanamide], at DNMT1 (setting [2]), the “DNMT1 BioChemical (pIC50 category)” value was “D (Category D: ≥6.5)”. Besides, in experiment [1], the EC50 is under 0.316 µM.

On to `CCc1c(C#N)c(SCc2ccc(CNC(C)=O)cc2)nc(N2CC(OC(=O)[C@@H](N)C(C)C)C2)c1C#N` [Example 282, (S)-1-(6-((4-(Acetamidomethyl)benzyl)thio)-3,5-dicyano-4-ethylpyridin-2-yl)azetidin-3-yl 2-amino-3-methylbutanoate, Trifluoroacetic Acid Salt], for which the “DNMT1 BioChemical (pIC50 category)” value on DNMT1 (setting [2]) is “D (Category D: ≥6.5)”. In experiment [1], the EC50 is 1 to 31.6 µM.

Turning to `CCc1c(C#N)c(SC(C(N)=O)c2ccc(F)c(F)c2)nc(N2CCC(N(C)C)CC2)c1C#N` (stereo not drawn) [Example 216, 2-((3,5-Dicyano-6-(4-(dimethylamino)piperidin-1-yl)-4-ethylpyridin-2-yl)thio)-2-(3,4-difluorophenyl)acetamide], the IC50 on DNMT1 (setting [3]) was 1 to 31.6 µM; on DNMT1 (setting [4]) it was ≥ 1 µM and 1.58 µM. The EC50 in experiment [1] is under 0.316 µM.

With `CCc1c(C#N)c(SC(C(N)=O)c2ccccc2)nc(N(C)CC(=O)NCCCO)c1C#N` (stereo not drawn) [Example 677, 2-((6-((2-amino-2-oxo-1-phenylethyl)thio)-3,5-dicyano-4-ethylpyridin-2-yl)(methyl)amino)-N-(3-hydroxypropyl)acetamide], on DNMT1 (setting [2]), the “DNMT1 BioChemical (pIC50 category)” value is “D (Category D: ≥6.5)”. Moreover, in experiment [1], the EC50 is 0.316 to 1 µM.

`CCc1c(C#N)c(SCc2ccc(CC(=O)O)cc2)nc(N2CCCN(C)CC2)c1C#N` [Example 72, 2-(4-(((3,5-Dicyano-4-ethyl-6-(4-methyl-1,4-diazepan-1-yl)pyridin-2-yl)thio)methyl)phenyl)acetic acid]: the IC50 on DNMT1 (setting [3]) was 1 to 31.6 µM; at DNMT1 (setting [4]), ≥ 1 µM and 2 µM. Moreover, the EC50 in experiment [1] was over 31.6 µM.

Consider `CCc1c(C#N)c(SC(C(N)=O)c2ccccc2)nc(N(C)Cc2ncc[nH]2)c1C#N` (stereo not drawn) [Example 364, 2-((6-(((1H-Imidazol-2-yl)methyl)(methyl)amino)-3,5-dicyano-4-ethylpyridin-2-yl)thio)-2-phenylacetamide], for which, at DNMT1 (setting [2]), the “DNMT1 BioChemical (pIC50 category)” value is listed as “D (Category D: ≥6.5)”. Also, the EC50 in experiment [1] is under 0.316 µM.

Consider `CCc1c(C#N)c(SCc2ccc(N(C)S(C)(=O)=O)cc2)nc(N2CCC(NCC(C)(C)C)CC2)c1C#N` [Example 569, N-(4-(((3,5-dicyano-4-ethyl-6-(4-(neopentylamino)piperidin-1-yl)pyridin-2-yl)thio)methyl)phenyl)-N-methylmethanesulfonamide], for which, on DNMT1 (setting [2]), the “DNMT1 BioChemical (pIC50 category)” value was “D (Category D: ≥6.5)”. For the same molecule, the EC50 in experiment [1] was under 0.316 µM.

As to `CCc1c(C#N)c(SC(C(N)=O)c2ccccc2)nc(N2CCC(N(C)CCO)CC2)c1C#N` (stereo not drawn) [Example 443, 2-((3,5-dicyano-4-ethyl-6-(4-((2-hydroxyethyl)(methyl)amino)piperidin-1-yl)pyridin-2-yl)thio)-2-phenylacetamide], the “DNMT1 BioChemical (pIC50 category)” value at DNMT1 (setting [2]) is “D (Category D: ≥6.5)”. In experiment [1], the EC50 is under 0.316 µM.

For the molecule `CCc1c(C#N)c(S[C@@H](C(N)=O)c2ccccc2)nc(N2CCOCC2)c1C#N` [Example 65, (R)-2-[(3,5-Dicyano-4-ethyl-6-morpholino-2-pyridyl)sulfanyl]-2-phenyl-acetamide], at DNMT1 (setting [3]), the IC50 is 0.316 to 1 µM. Further, the EC50 in experiment [1] is 1 to 31.6 µM.

On to `CCc1c(C#N)c(SCc2ccc3c(c2)OCO3)nc(N2CCCN(C)CC2)c1C#N` [Example 346, 2-((Benzo[1,3]dioxol-5-ylmethyl)thio)-4-ethyl-6-(4-methyl-1,4-diazepan-1-yl)pyridine-3,5-dicarbonitrile], for which, on DNMT1 (setting [3]), the IC50 is 0.316 to 1 µM. Further, the EC50 in experiment [1] was over 31.6 µM.

As for `CCc1c(C#N)c(SC(C(N)=O)c2ccc(F)cc2)nc(N2CC[C@H](N(C)C)C2)c1C#N` (stereo partly drawn) [Example 544, 2-((3,5-dicyano-6-((S)-3-(dimethylamino)pyrrolidin-1-yl)-4-ethylpyridin-2-yl)thio)-2-(4-fluorophenyl)acetamide], the “DNMT1 BioChemical (pIC50 category)” value on DNMT1 (setting [2]) is listed as “D (Category D: ≥6.5)”. The EC50 in experiment [1] is 1 to 31.6 µM.

Turning to `CNC1CCCN(c2nc(SC(C(N)=O)c3ccccc3)c(C#N)c(C3CC3)c2C#N)C1` (stereo not drawn) [Example 24, 2-((3,5-dicyano-4-cyclopropyl-6-(3-(methylamino)piperidin-1-yl)pyridin-2-yl)thio)-2-phenylacetamide], the “DNMT1 BioChemical (pIC50 category)” value on DNMT1 (setting [2]) was “D (Category D: ≥6.5)”. The EC50 in experiment [1] is under 0.316 µM.

Take `CCc1c(C#N)c(SCc2ccc(CNC(=O)CC(C)C)cc2)nc(N2CCCN(C)CC2)c1C#N` [Example 89, N-(4-(((3,5-Dicyano-4-ethyl-6-(4-methyl-1,4-diazepan-1-yl)pyridin-2-yl)thio)methyl)benzyl)-3-methylbutanamide]: the IC50 at DNMT1 (setting [3]) is 0.316 to 1 µM. For the same molecule, in experiment [1], the EC50 was over 31.6 µM.

On to `CN(CCN)c1nc(SC(C(N)=O)c2ccccc2)c(C#N)c(C2CC2)c1C#N` (stereo not drawn) [Example 373, 2-((6-((2-Aminoethyl)(methyl)amino)-3,5-dicyano-4-cyclopropylpyridin-2-yl)thio)-2-phenylacetamide, Hydrochloride], for which the “DNMT1 BioChemical (pIC50 category)” value at DNMT1 (setting [2]) was “D (Category D: ≥6.5)”. The EC50 in experiment [1] was 0.316 to 1 µM.

With `CCc1c(C#N)c(SCc2ccc(CNC(=O)CNC(=O)OC(C)(C)C)cc2)nc(N2CCCN(C)CC2)c1C#N` [Example 78, tert-Butyl (2-((4-(((3,5-dicyano-4-ethyl-6-(4-methyl-1,4-diazepan-1-yl)pyridin-2-yl)thio)methyl)benzyl)amino)-2-oxoethyl)carbamate], the figures for the IC50 at DNMT1 (setting [3]) and on DNMT1 (setting [4]) were 0.316 to 1 µM and at least 1 µM, respectively. The EC50 in experiment [1] is over 31.6 µM.

As for `CCc1c(Cl)c(SC(C(N)=O)c2ccccc2)nc(N2CCCN(C)CC2)c1Cl` (stereo not drawn) [Example 165], the IC50 on DNMT1 (setting [3]) is 0.316 to 1 µM; on DNMT1 (setting [4]), 0.316 to 1 µM and 0.631 µM. Further, the EC50 in experiment [1] is over 31.6 µM.

Regarding `CCc1c(C#N)c(SC(C(N)=O)c2ccc(F)cc2)nc(N2CCC[C@H](CN)C2)c1C#N` (stereo partly drawn) [Example 593, 2-((6-((R)-3-(aminomethyl)piperidin-1-yl)-3,5-dicyano-4-ethylpyridin-2-yl)thio)-2-(4-fluorophenyl)acetamide], the IC50 at DNMT1 (setting [3]) was under 0.316 µM. Besides, the EC50 in experiment [1] is under 0.316 µM.

`CCc1c(C#N)c(SCc2ccc3c(c2)C(OC)(OC)C(=O)N3)nc(N2CCCN(C)CC2)c1C#N` [Example 347, 2-(((3,3-Dimethoxy-2-oxoindolin-5-yl)methyl)thio)-4-ethyl-6-(4-methyl-1,4-diazepan-1-yl)pyridine-3,5-dicarbonitrile]: at DNMT1 (setting [3]), the IC50 was 0.316 to 1 µM. Further, the EC50 in experiment [1] was 1 to 31.6 µM.

For `CCc1c(C#N)c(SC(C(N)=O)c2ccccc2)nc(N2CC(F)(CN)C2)c1C#N` (stereo not drawn) [Example 688, 2-((6-(3-(aminomethyl)-3-fluoroazetidin-1-yl)-3,5-dicyano-4-ethylpyridin-2-yl)thio)-2-phenylacetamide], on DNMT1 (setting [2]), the “DNMT1 BioChemical (pIC50 category)” value is on record as “D (Category D: ≥6.5)”. Also, in experiment [1], the EC50 is 1 to 31.6 µM.

Source of the values: patent US10975056B2 (GlaxoSmithKline Intellectual Property Development Limited, priority 2016, dated 2021).
